{
  "source": "patent US12643926B2",
  "about": "“LysM receptor motifs” (Aarhus Universitet, priority 2020, dated 2026)",
  "molecules": {"B1": {"name": "construct 41: Nfr1 promoter; LYK3 (protein, UniProt Q6UD73 1-620, looked up)", "chain": "MNLKNGLLLFILFLDCVFFKVESKCVKGCDVALASYYIIPSIQLRNISNFMQSKIVLTNSFDVIMSYNRDVVFDKSGLISYTRINVPFPCECIGGEFLGHVFEYTTKEGDDYDLIANTYYASLTTVELLKKFNSYDPNHIPVKAKINVTVICSCGNSQISKDYGLFVTYPLRSDDTLAKIATKAGLDEGLIQNFNQDANFSIGSGIVFIPGRDQNGHFFPLYSRTGIAKGSAVGIAMAGIFGLLLFVIYIYAKYFQKKEEEKTKLPQTSRAFSTQDASGSAEYETSGSSGHATGSAAGLTGIMVAKSTEFTYQELAKATNNFSLDNKIGQGGFGAVYYAELRGEKTAIKKMDVQASSEFLCELKVLTHVHHLNLVRLIGYCVEGSLFLVYEHIDNGNLGQYLHGIGTEPLPWSSRVQIALDSARGLEYIHEHTVPVYIHRDVKSANILIDKNLRGKVADFGLTKLIEVGNSTLHTRLVGTFGYMPPEYAQYGDVSPKIDVYAFGVVLYELITAKNAVLKTGESVAESKGLVQLFEEALHRMDPLEGLRKLVDPRLKENYPIDSVLKMAQLGRACTRDNPLLRPSMRSIVVALMTLSSPTEDCDDDSSYENQSLINLLSTR", "modifications": "full-length expressed from Nfr1 promoter", "notes": "Nfr1 promoter; LYK3"}, "B2": {"name": "wild type M. truncatula NFP gene: wild type M. truncatula NFP transgene used to transform nfp mutant roots (protein, UniProt Q0GXS4 1-595, looked up)", "chain": "MSAFFLPSSSHALFLVLMLFFLTNISAQPLYISETNFTCPVDSPPSCETYVAYRAQSPNFLSLSNISDIFNLSPLRIAKASNIEAEDKKLIPDQLLLVPVTCGCTKNHSFANITYSIKQGDNFFILSITSYQNLTNYLEFKNFNPNLSPTLLPLDTKVSVPLFCKCPSKNQLNKGIKYLITYVWQDNDNVTLVSSKFGASQVEMLAENNHNFTASTNRSVLIPVTSLPKLDQPSSNGRKSSSQNLALIIGISLGSAFFILVLTLSLVYVYCLKMKRLNRSTSSSETADKLLSGVSGYVSKPTMYEIDAIMEGTTNLSDNCKIGESVYKANIDGRVLAVKKIKKDASEELKILQKVNHGNLVKLMGVSSDNDGNCFLVYEYAENGSLEEWLFSESSKTSNSVVSLTWSQRITIAMDVAIGLQYMHEHTYPRIIHRDITTSNILLGSNFKAKIANFGMARTSTNSMMPKIDVFAFGVVLIELLTGKKAMTTKENGEVVILWKDFWKIFDLEGNREERLRKWMDPKLESFYPIDNALSLASLAVNCTADKSLSRPTIAEIVLCLSLLNQPSSEPMLERSLTSGLDAEATHVVTSVIAR", "modifications": "full-length", "notes": "wild type M. truncatula NFP transgene used to transform nfp mutant roots"}, "B3": {"name": "A. thaliana CERK1: A. thaliana LysM chitin receptor CERK1 (protein, UniProt A8R7E6 24-617, looked up)", "Chitin elicitor receptor …": "KCRTSCPLALASYYLENGTTLSVINQNLNSSIAPYDQINFDPILRYNSNIKDKDRIQMGSRVLVPFPCECQPGDFLGHNFSYSVRQEDTYERVAISNYANLTTMESLQARNPFPATNIPLSATLNVLVNCSCGDESVSKDFGLFVTYPLRPEDSLSSIARSSGVSADILQRYNPGVNFNSGNGIVYVPGRDPNGAFPPFKSSKQDGVGAGVIAGIVIGVIVALLLILFIVYYAYRKNKSKGDSFSSSIPLSTKADHASSTSLQSGGLGGAGVSPGIAAISVDKSVEFSLEELAKATDNFNLSFKIGQGGFGAVYYAELRGEKAAIKKMDMEASKQFLAELKVLTRVHHVNLVRLIGYCVEGSLFLVYEYVENGNLGQHLHGSGREPLPWTKRVQIALDSARGLEYIHEHTVPVYVHRDIKSANILIDQKFRAKVADFGLTKLTEVGGSATRGAMGTFGYMAPETVYGEVSAKVDVYAFGVVLYELISAKGAVVKMTEAVGEFRGLVGVFEESFKETDKEEALRKIIDPRLGDSYPFDSVYKMAELGKACTQENAQLRPSMRYIVVALSTLFSSTGNWDVGNFQNEDLVSLMSGR"}},
  "key": {"[1]": {"target": "T1, Medicago truncatula NFP ectodomain, wild type (residues 28-246) (Medicago truncatula, UniProt Q0GXS4)", "T1 construct": "The M. truncatula NFP ectodomain (residues 28-246); AcMNPV gp67 signal peptide, replaces the native signal peptide (N); hexa-histidine (C); made in house; host or cells: Sf9 insect cells (Spodoptera frugiperda), baculovirus", "assay": "biolayer interferometry (BLI) binding of S. meliloti Nod factor LCO-IV to NFP WT ectodomain", "details": "n = 7", "description": "(§1) The M. truncatula NFP ectodomain (residues 28-246) was codon-optimized for insect cell expression (Genscript, Piscataway, USA) and cloned into the pOET4 baculovirus transfer vector (Oxford Expression Technologies). The native NFP signal peptide (residues 1-27, predicted by SignalP 4.1) was replaced with the AcMNPV gp67 signal peptide to facilitate secretion and a hexa-histidine tag was added to the C-terminus. Recombinant baculoviruses were produced in […] (Spodoptera frugiperda) using the FlashBac Gold kit (Oxford Expression technologies) according to the manufacturer's instructions with Lipofectin (ThermoFisher Scientific) as a transfection reagent. Protein expression was performed as follows. Suspension-cultured Sf9 cells were maintained with shaking at 299 K in serum-free MAX-XP (BD-Biosciences, discontinued) or HyClone SFX (GE Healthcare) medium supplemented with 1% Pen-Strep (10000 U/ml, Life technologies) and 1% CD lipid concentrate (Gibco). Protein expression was induced by adding recombinant passage 3 virus once the Sf9 cells reached a cell density of 1.0*10^6 cells/ml. After 5-7 days of expression, medium supernatant containing NFP ectodomains was harvested by centrifugation. This was followed by an overnight dialysis step against 50 mM Tris-HCl pH 8, 200 mM NaCl at 277 K. The NFP ectodomain was enriched by two subsequent steps of Ni-IMAC purification (HisTrap excel/HisTrap HP, both GE Healthcare). For crystallography, N-glycans were removed using the endoglycosidase PNGase F (1:15 (w/w), room temperature, overnight). As a final purification step, NFP ectodomains was purified by SEC on a Superdex 200 10/300 or HiLoad Superdex 200 16/600 (both GE Healthcare) in phosphate buffered saline at pH 7.2 supplemented to a total of 500 mM NaCl (for binding assays) or 50 mM Tris-HCl, 200 mM NaCl (for crystallography). NFP ectodomain eluted as a single, homogeneous peak corresponding to a monomer.\n(§2) The binding assay using NFP wild type (WT) was replicated seven times, while the binding assay using the NFP mutant NFP L147D L154D was replicated four times.\nBinding of NFP WT and NFP L147D/L154D mutant to S. meliloti Nod factor LCO-IV was measured on an Octet RED 96 system (Pall ForteBio). […] Equilibrium dissociation constants derived from the steady-state were determined by applying a non-linear regression (one site, specific binding) to the response at equilibrium plotted against the protein concentration. Kinetic parameters were determined by non-linear regression (association followed by dissociation) on the subtracted data. […]"}, "[2]": {"target": "T2, Medicago truncatula NFP ectodomain (residues 28-246) double mutant L147D L154D (Medicago truncatula, UniProt Q0GXS4, L147D/L154D)", "T2 construct": "The M. truncatula NFP ectodomain (residues 28-246); AcMNPV gp67 signal peptide, replaces the native signal peptide (N); hexa-histidine (C); made in house; host or cells: Sf9 insect cells (Spodoptera frugiperda), baculovirus", "T2 sequence (Q0GXS4 28-246 L147D/L154D)": "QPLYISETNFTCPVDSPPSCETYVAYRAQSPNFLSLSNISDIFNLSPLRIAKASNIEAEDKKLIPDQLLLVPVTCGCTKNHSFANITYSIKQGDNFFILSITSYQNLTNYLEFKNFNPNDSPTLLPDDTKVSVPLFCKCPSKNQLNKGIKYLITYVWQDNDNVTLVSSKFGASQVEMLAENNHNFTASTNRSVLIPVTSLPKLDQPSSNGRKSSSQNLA", "assay": "biolayer interferometry (BLI) binding of S. meliloti Nod factor LCO-IV to NFP L147D L154D ectodomain", "details": "double mutant vs WT", "description": "as §1\nThe M. truncatula NFP leucine residues L147 and L154 were replaced with aspartate residues. Aspartate is similar in size to leucine, but negatively charged where leucine is hydrophobic. Point mutants of NFP were engineered using site-directed mutagenesis. In particular, a double-mutated NFP was engineered where the leucine residues L147 and L154 were replaced with aspartate residues to create the mutant NFP L147D L154D. Point mutated versions of the NFP ectodomain were expressed and purified as described above.\nas §2\n(§3) Binding of NFP WT and NFP L147D/L154D mutant to S. meliloti Nod factor LCO-IV was measured on an Octet RED 96 system (Pall ForteBio). S. meliloti Nod factor LCO-IV consists of a tetrameric/pentameric N-acetylglucosamine backbone that is O-sulfated on the reducing terminal residue, O-acetylated on the non-reducing terminal residue, and mono-N-acylated by unsaturated C16 acyl groups. Biotinylated ligand conjugates were immobilized on streptavidin biosensors (kinetic quality, Pall ForteBio) at a concentration of 125-250 nM for 5 minutes. The binding assays were replicated 7 times for the NFP WT, and 4 times for the NFP L147D/L154D mutant. Data analysis was performed in GraphPad Prism 6 software (GraphPad Software, Inc.). Equilibrium dissociation constants derived from the steady-state were determined by applying a non-linear regression (one site, specific binding) to the response at equilibrium plotted against the protein concentration. Kinetic parameters were determined by non-linear regression (association followed by dissociation) on the subtracted data. Table 9 summarizes the kinetic parameters of FIGS. 18C-18D, with goodness of fit described by the global fit R^2 on the mean value of each point, and number of replicates performed using independent protein preparations (n) indicated."}, "[3]": {"system": "L. japonicus nfr1-1 loss-of-function mutant", "assay": "Nodulation assay: complementation of L. japonicus nfr1-1 hairy roots after M. loti R7A DsRed inoculation", "type": "in vivo, Lotus japonicus", "details": "Nfr1 promoter, five weeks post inoculation", "description": "A. rhizogenes carrying the expression constructs of interest were grown for two days on solid medium. The cells of one plate were resuspended in 2 ml YMB media, and this process was repeated for each construct. A 1 ml syringe with a needle (Sterican Ø0.40×20 mm) was then used to transform the plants, whereby the needle was used to puncture the hypocotyl and a droplet with the bacterial suspension was placed on the wound. Petri dishes containing the transformed roots were sealed and left in the dark for two days and then moved to 21° C. under 16 hour light/8 hour dark conditions. After three weeks, plants with transformed roots were moved to Magenta boxes (Sigma-Aldrich) filled with a 4:1 mixture of lightweight expanded clay aggregate (LECA, 2-4 mm; Saint-Gobain Weber A/S) and vermiculite (size M; Damolin A/S) supplemented with 80 ml nitrogen-free ¼× B&D nutrient solution. All plants were grown at 21° C. under 16 hour light/8 hour dark conditions.\nChimeric receptors under the control of the Nfr1 promoter were tested for their ability to complement a L. japonicus nfr1-1 loss-of-function mutant that is unable to develop root nodules (Radutoiu, S. et al. Nature 2003 425). […] At five weeks post inoculation, nodules were counted and images were acquired with a Leica FluoStereo M165FC microscope equipped with the Leica DFC310 FX camera. […]"}, "[4]": {"system": "M. truncatula nfp mutants", "assay": "Complementation assay of M. truncatula nfp mutants, inoculation with S. meliloti strain 2011", "type": "in vivo, Medicago truncatula", "details": "nfp mutant roots; 6-7 weeks after inoculation with S. meliloti strain 2011", "description": "Construct assembly, plant growth conditions, hairy root transformations, nodulation and ROS assays were generally conducted as described in Bozsoki, et al. 2017 (Bozsoki, Z. et al. Proc. Natl. Acad. Sci. 2017 114: E8118-E8127). The tested transgenes were the mutated LysM receptors described above."}, "[5]": {"assay": "Biolayer interferometry of A. thaliana CERK1 binding to chitin fragments", "details": "BLI; CO5 and CO8; result in words", "description": "as §3, with “Table 9 summarizes the kinetic parameters of FIGS. 18C-18D, with goodness of fit described by the global fit R^2 on the mean value of each point, and number of replicates performed using independent protein preparations (n) indicated.” left out\nBinding of A. thaliana CERK1 (AtCERK1) to chitopentaose (CO5) and chitooctaose (CO8) was measured in the same way."}},
  "note": "Entries after “also recorded” stand apart in the source; their conditions may differ. Read-outs that look alike come from different tables or passages of the source.",
  "data": [
    {"molecule": "CCCCCC/C=C\\CCCCC/C=C/C(=O)N[C@H]1[C@H](O[C@H]2[C@H](O)[C@@H](NC(C)=O)[C@H](O[C@H]3[C@H](O)[C@@H](NC(C)=O)[C@H](O[C@H]4[C@H](O)[C@@H](NC(C)=O)C(O)O[C@@H]4COS(=O)(=O)O)O[C@@H]3CO)O[C@@H]2CO)O[C@H](COC(C)=O)[C@@H](O)[C@@H]1O", "note": "(stereo partly shown) [S. meliloti Nod factor LCO-IV]", "values": [
      {"measurement": "kon", "setting": "[1]; Table 8, read-out: A (converted)", "value": 0.958, "unit": "M⁻¹ s⁻¹"},
      {"measurement": "koff", "setting": "[1]; Table 8, read-out: D (converted)", "value": "2.48e-05", "unit": "s⁻¹"},
      {"measurement": "koff", "setting": "[1]; Table 9, BLI, read-out: koff", "value": 0.00064, "unit": "s⁻¹"},
      {"measurement": "kon", "setting": "[1]; Table 9, BLI, read-out: kon", "value": 50.3, "unit": "M⁻¹ s⁻¹"},
      {"measurement": "affinity versus NFP WT (Table 8 data)", "setting": "[2]", "value": "approximately two times lower affinity"},
      {"measurement": "association (Kon) versus NFP WT (Table 8 data)", "setting": "[2]", "value": "almost unaffected"},
      {"measurement": "association rate (kon), fold faster than WT (Table 9 data)", "setting": "[2]", "value": 4.5, "unit": "fold"},
      {"measurement": "dissociation (Koff), times faster than NFP WT (Table 8 data)", "setting": "[2]", "value": "approximately 15 times"},
      {"measurement": "dissociation rate (koff), fold increase over WT (Table 9 data)", "setting": "[2]", "value": 59, "unit": "fold"},
      {"measurement": "lower affinity compared to WT NFP ectodomain (Table 9 data)", "setting": "[2]", "value": 13, "unit": "fold"}
    ]},
    {"molecule": "B1", "values": [
      {"measurement": "nodule formation (complementation of nfr1)", "setting": "[3]", "value": "absence of nodulation; also recorded: signaling incompetent"}
    ]},
    {"molecule": "B2", "values": [
      {"measurement": "average nodules per plant", "setting": "[4]", "value": 10, "unit": "nodules per plant"}
    ]},
    {"molecule": "B3", "values": [
      {"measurement": "binding kinetics to chitin fragments", "setting": "[5]", "value": "fast association and dissociation rates"}
    ]}
  ]
}
